Where “and” joins values, the source holds several entries; their conditions need not be identical. Equal values may be shown once. Inconclusive results and toxic doses are left out. How the source made its calls: active means survival T/C of 150% or more; inactive means T/C below 125% in these data.
Tested on: CD2F1 mice, L1210 leukemia ip, survival T/C
Assay: NCI In Vivo Anticancer Drug Screen. Data for tumor model L1210 Leukemia (intraperitoneal) in CD2F1 (CDF1) mice
Conditions: higher = longer survival
Procedure, shortened: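 Transplantable tumor in mice; compound-treated vs vehicle-treated groups. Read-out = treated/control ratio of the measured endpoint.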

[1] = endpoint: mean survival time, dose: 100.0 mg/kg/injection, schedule: Q01DX001 (ip), vehicle: saline with Tween-80
[2] = endpoint: mean survival time, dose: 200.0 mg/kg/injection, schedule: Q01DX001 (ip), vehicle: saline with Tween-80
[3] = endpoint: mean survival time, dose: 400.0 mg/kg/injection, schedule: Q01DX001 (ip), vehicle: saline with Tween-80
[4] = endpoint: mean survival time, dose: 100.0 mg/kg/injection, schedule: Q01DX001 (ip), vehicle: Klucel (hydroxypropylcellulose) (HPC)
[5] = endpoint: mean survival time, dose: 200.0 mg/kg/injection, schedule: Q01DX001 (ip), vehicle: Klucel (hydroxypropylcellulose) (HPC)
[6] = endpoint: mean survival time, dose: 100.0 mg/kg/injection, schedule: Q01DX009 (ip), vehicle: saline with Tween-80
[7] = endpoint: mean survival time, dose: 100.0 mg/kg/injection, schedule: Q04DX003 (ip), vehicle: saline with Tween-80
[8] = endpoint: mean survival time, dose: 200.0 mg/kg/injection, schedule: Q01DX009 (ip), vehicle: saline with Tween-80
[9] = endpoint: mean survival time, dose: 200.0 mg/kg/injection, schedule: Q04DX003 (ip), vehicle: saline with Tween-80
[10] = endpoint: mean survival time, dose: 400.0 mg/kg/injection, schedule: Q04DX003 (ip), vehicle: saline with Tween-80
[11] = endpoint: mean survival time, dose: 75.0 mg/kg/injection, schedule: Q04DX003 (ip), vehicle: saline
[12] = endpoint: mean survival time, dose: 150.0 mg/kg/injection, schedule: Q04DX003 (ip), vehicle: saline
[13] = endpoint: mean survival time, dose: 50.0 mg/kg/injection, schedule: Q01DX009 (ip), vehicle: saline
[14] = endpoint: mean survival time, dose: 100.0 mg/kg/injection, schedule: Q01DX009 (ip), vehicle: saline
[15] = endpoint: mean survival time, dose: 100.0 mg/kg/injection, schedule: Q04DX003 (ip), vehicle: saline
[16] = endpoint: mean survival time, dose: 200.0 mg/kg/injection, schedule: Q04DX003 (ip), vehicle: saline
[17] = endpoint: mean survival time, dose: 400.0 mg/kg/injection, schedule: Q01DX009 (ip), vehicle: saline with Tween-80
[18] = endpoint: mean survival time, dose: 50.0 mg/kg/injection, schedule: Q01DX009 (ip), vehicle: saline with Tween-80
[19] = endpoint: mean survival time, dose: 100.0 mg/kg/injection, schedule: Q01DX001 (ip), vehicle: saline
[20] = endpoint: mean survival time, dose: 200.0 mg/kg/injection, schedule: Q01DX001 (ip), vehicle: saline
[21] = endpoint: mean survival time, dose: 400.0 mg/kg/injection, schedule: Q01DX001 (ip), vehicle: saline
[22] = endpoint: mean survival time, dose: 25.0 mg/kg/injection, schedule: Q04DX003 (ip), vehicle: saline
[23] = endpoint: mean survival time, dose: 50.0 mg/kg/injection, schedule: Q04DX003 (ip), vehicle: saline

Measured: T/C

C=C(C)C12CC(C)C34OC5(CCCCCCCC(C)C6C(C)C(OC(=O)c7ccccc7)C(O)(C(O)C7(COC(=O)CCCCCCCCCCCCCCC)OC7C3C1O5)C64)O2 (configuration not stated)
inactive: endpoint: mean survival time, dose: 1.5 micrograms/kg/injection, schedule: Q01DX009 (ip), vehicle: saline 103 % of control | endpoint: mean survival time, dose: 3.1 micrograms/kg/injection, schedule: Q01DX009 (ip), vehicle: saline 104 % of control | endpoint: mean survival time, dose: 6.2 micrograms/kg/injection, schedule: Q01DX009 (ip), vehicle: saline 97 % of control | endpoint: mean survival time, dose: 12.5 micrograms/kg/injection, schedule: Q01DX009 (ip), vehicle: saline 104 % of control | endpoint: mean survival time, dose: 25.0 micrograms/kg/injection, schedule: Q01DX009 (ip), vehicle: saline 95 % of control | endpoint: mean survival time, dose: 50.0 micrograms/kg/injection, schedule: Q01DX009 (ip), vehicle: saline 101 % of control

CC1(C(=O)c2ccccc2)CC2C=CC1C2 (configuration not stated)
inactive: endpoint: mean survival time, dose: 50.0 mg/kg/injection, schedule: Q04DX002 (ip), vehicle: saline with Tween-80 94 % of control | endpoint: mean survival time, dose: 100.0 mg/kg/injection, schedule: Q04DX002 (ip), vehicle: saline with Tween-80 108 % of control | endpoint: mean survival time, dose: 200.0 mg/kg/injection, schedule: Q04DX002 (ip), vehicle: saline with Tween-80 94 % of control

Nc1ccc(Nc2ccc([N+](=O)[O-])cc2[N+](=O)[O-])cc1
inactive: [1] 89 % of control | [2] 96 % of control | [3] 96 % of control

CCCCCCCCCCCCCCCCCCCOc1ccc(OCCCCCCCCCCCCCC)cc1
inactive: [1] 86 % of control | [2] 88 % of control | [3] 88 % of control

COc1cccc(NC(=S)NC(Cc2ccccc2)c2ccccc2)c1 (configuration not stated)
inactive: [4] 101 % of control | [5] 91 % of control | endpoint: mean survival time, dose: 400.0 mg/kg/injection, schedule: Q01DX001 (ip), vehicle: Klucel (hydroxypropylcellulose) (HPC) 96 % of control

CC1(c2ccccc2)C(C#N)C(=O)NC(=O)C1C#N (configuration not stated)
inactive: [6] 94 % of control | [7] 102 % of control | [8] 93 % of control | [9] 91 % of control | [10] 91 % of control

CCO/N=C(\C)CSC1=NCCN1
inactive: [11] 102 % of control | [12] 100 % of control

Cc1cc2c(cc1C)C(=O)c1ccccc1C2=O
inactive: [13] 102 % of control | [14] 93 % of control | [15] 97 % of control | [16] 89 % of control

C1=CCC(CNc2ncnc3nc[nH]c23)=CC1
inactive: [6] 100 % of control | [7] 98 % of control | [8] 100 % of control | [9] 98 % of control | [17] 88 % of control | [10] 104 % of control

OC12CC(C(F)(F)F)(C(F)(F)F)OC1(O)CC(C(F)(F)F)(C(F)(F)F)O2 (configuration not stated)
inactive: [18] 95 % of control | [6] 95 % of control | [8] 95 % of control

O=C(N/N=C/c1cccc([N+](=O)[O-])c1)c1ccc(Cl)cc1Cl
inactive: [6] 100 % of control | [8] 97 % of control | [17] 100 % of control

CNC(=O)O/N=C1\CCCc2sccc21
inactive: [1] 110 % of control | [2] 110 % of control | [3] 101 % of control

O=C(CNC(=O)c1ccccc1)N/N=C/c1ccccc1O
inactive: [6] 94 % of control | [8] 95 % of control | [17] 89 % of control

Nc1ncn(C2OC(COC(=O)c3ccccc3)C(OC(=O)c3ccccc3)C2OC(=O)c2ccccc2)n1 (configuration not stated)
inactive: endpoint: median survival time, dose: 8.75 mg/kg/injection, schedule: Q01DX005 (ip), vehicle: distilled water + Tween-80 94 % of control | endpoint: median survival time, dose: 17.5 mg/kg/injection, schedule: Q01DX005 (ip), vehicle: distilled water + Tween-80 91 % of control | endpoint: median survival time, dose: 35.0 mg/kg/injection, schedule: Q01DX005 (ip), vehicle: distilled water + Tween-80 91 % of control | endpoint: median survival time, dose: 70.0 mg/kg/injection, schedule: Q01DX005 (ip), vehicle: distilled water + Tween-80 95 % of control | endpoint: median survival time, dose: 140.0 mg/kg/injection, schedule: Q01DX005 (ip), vehicle: distilled water + Tween-80 91 % of control

C[C@]12CC[C@H](O)C[C@@]1(O)CC[C@@H]1[C@@H]2CC[C@]2(C)[C@@H](c3ccc(=O)oc3)C[C@H]3O[C@]132
inactive: endpoint: mean survival time, dose: 2.5 mg/kg/injection, schedule: Q01DX009 (ip), vehicle: other 97 % of control | endpoint: mean survival time, dose: 5.0 mg/kg/injection, schedule: Q01DX009 (ip), vehicle: other 92 % of control | endpoint: mean survival time, dose: 10.0 mg/kg/injection, schedule: Q01DX009 (ip), vehicle: other 91 % of control

COc1cccc(NC(=O)NC2C(OC(C)=O)OC(COC(C)=O)C(OC(C)=O)C2OC(C)=O)c1 (configuration not stated)
inactive: endpoint: mean survival time, dose: 12.5 mg/kg/injection, schedule: Q01DX009 (ip), vehicle: other 98 % of control | endpoint: mean survival time, dose: 25.0 mg/kg/injection, schedule: Q01DX009 (ip), vehicle: other 98 % of control | endpoint: mean survival time, dose: 50.0 mg/kg/injection, schedule: Q01DX009 (ip), vehicle: other 90 % of control | endpoint: mean survival time, dose: 100.0 mg/kg/injection, schedule: Q01DX009 (ip), vehicle: other 90 % of control | endpoint: mean survival time, dose: 200.0 mg/kg/injection, schedule: Q01DX009 (ip), vehicle: other 96 % of control

COc1cc(OC)c(NC(=O)OCCOc2ccc(Br)cc2)cc1Cl
inactive: [18] 90 % of control | [6] 90 % of control | [8] 97 % of control

Brc1cnc2n[nH]nc2c1
inactive: [19] 109 % of control | [20] 97 % of control | [21] 97 % of control

c1ccc(/C(N=NC(c2ccccc2)(c2ccccc2)c2ccccc2)=C(/N=NC(c2ccccc2)(c2ccccc2)c2ccccc2)c2ccccc2)cc1
inactive: [1] 91 % of control | [2] 101 % of control | [3] 89 % of control

NS(=O)(=O)Cc1ccccc1
inactive: [22] 107 % of control | [23] 117 % of control | [15] 90 % of control and 92 % of control

c1ccc(Oc2cc[c]([Sn]([c]3ccccc3)([c]3ccccc3)[c]3ccc(Oc4ccccc4)cc3)cc2)cc1
inactive: [6] 106 % of control | [8] 100 % of control | [17] 98 % of control

Fc1cc(F)c(F)c(Oc2c(F)c(F)c(-c3c(F)c(F)c(F)c(F)c3F)c(F)c2F)c1F
inactive: [7] 100 % of control | [9] 91 % of control | [10] 91 % of control

COc1cc2c(cc1OC)C1CCN3C(=O)CCC3[N+]1(C)CC2 (configuration not stated)
inactive: [13] 93 % of control | [14] 98 % of control | [15] 98 % of control | [16] 96 % of control

C/C=C\C=C\C(=O)O
inactive: [6] 100 % of control | [8] 97 % of control | [17] 100 % of control

CC1(C)NC(=O)NC1=O
inactive: [19] 98 % of control | [20] 107 % of control | [21] 107 % of control

Cc1ccc(S(=O)(=O)N(CCCc2c(C)nc(N)nc2Cl)c2ccccc2)cc1
inactive: endpoint: mean survival time, dose: 50.0 mg/kg/injection, schedule: Q01DX001 (ip), vehicle: Klucel (hydroxypropylcellulose) (HPC) 100 % of control | [4] 104 % of control | [5] 96 % of control

CCCS(=O)(=O)CS(=O)(=O)CC
inactive: endpoint: mean survival time, dose: 75.0 mg/kg/injection, schedule: Q01DX001 (ip), vehicle: saline with Tween-80 100 % of control | endpoint: mean survival time, dose: 150.0 mg/kg/injection, schedule: Q01DX001 (ip), vehicle: saline with Tween-80 92 % of control | endpoint: mean survival time, dose: 300.0 mg/kg/injection, schedule: Q01DX001 (ip), vehicle: saline with Tween-80 90 % of control

ONc1ccccn1
inactive: endpoint: mean survival time, dose: 25.0 mg/kg/injection, schedule: Q01DX009 (ip), vehicle: saline 101 % of control | [13] 96 % of control | [23] 98 % of control | [14] 95 % of control | [15] 98 % of control

O=c1[nH]c(=S)[nH]c(-c2ccccc2)c1CCO
inactive: [7] 97 % of control | [9] 101 % of control | [10] 91 % of control

Cc1cc(C)c(NS(=O)(=O)c2ccccc2)c(C)n1
inactive: [1] 103 % of control | [2] 104 % of control | [3] 104 % of control

O=C(O)CNCNCC(=O)O
inactive: endpoint: mean survival time, dose: 100.0 mg/kg/injection, schedule: Q04DX002 (ip), vehicle: saline 90 % of control | endpoint: mean survival time, dose: 200.0 mg/kg/injection, schedule: Q04DX002 (ip), vehicle: saline 86 % of control

CCOC(=O)Nc1cc(=O)cc(NC(=O)OCC)[nH]1
inactive: [11] 98 % of control | [12] 97 % of control | endpoint: mean survival time, dose: 300.0 mg/kg/injection, schedule: Q04DX003 (ip), vehicle: saline 97 % of control

c1cc(-n2nnc3cnccc32)ccn1
inactive: [22] 102 % of control | [23] 104 % of control

— PubChem BioAssay AID256 (DTP/NCI, 2004)
